Like-named read-outs stand apart in the source and are kept apart here.
Assays:
[1] = system: Beet Armyworm (Spodoptera exigua); experiment: Bioassay on Beet Armyworm (BAW), 128-well diet tray assay; format: in vivo; conditions: Spodoptera exigua, 168 h, percent mortality of second instar larvae, 50 μg/cm^2 on artificial diet, five to seven days, 25° C., read-out: BAW Rating
How it was run: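 Second-instar larvae (one to five per well) were placed on artificial diet surface-treated with 50 μg/cm^2 compound in acetone-water and held at 25 °C, 14:10 light-dark, for five to seven days. Percent mortality was averaged over eight wells.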

[2] = system: Corn Earworm (Helicoverpa zea); experiment: Bioassay on Corn Earworm (CEW), 128-well diet tray assay; format: in vivo; conditions: Helicoverpa zea, 168 h; percent mortality of second instar larvae, 50 μg/cm^2 on artificial diet, five to seven days, 25° C.; Table 3; read-out: CEW Rating
Procedure: (§1) Certain molecules disclosed in this document were tested against BAW and CEW and CL using procedures described in the following examples. In the reporting of the results, the “BAW & CEW & CL Rating Table” was used (See Table Section).
Bioassays On CEW (Helicoverpa zea)
Bioassays on CEW were conducted using a 128-well diet tray assay. one to five second instar CEW larvae were placed in each well (3 mL) of the diet tray that had been previously filled with 1 mL of artificial diet to which 50 μg/cm^2 of the test compound (dissolved in 50 μL of 90:10 acetone-water mixture) had been applied (to each of eight wells) and then allowed to dry. Trays were covered with a clear self-adhesive cover, and held at 25° C., 14:10 light-dark for five to seven days. Percent mortality was recorded for the larvae in each well; activity in the eight wells was then averaged. The results are indicated in the table entitled “Table 3: Assay Results” (See Table Section).

[3] = system: Green Peach Aphid (Myzus persicae); experiment: Bioassay on Green Peach Aphid (GPA), foliar spray on cabbage seedlings; format: in vivo; conditions: 72 h, corrected % control (Abbott), 200 ppm spray on cabbage seedlings, three days
Procedure: Certain molecules disclosed in this document were tested against GPA using procedures described in the following example. In the reporting of the results, the “GPA Rating Table” was used (See Table Section). Cabbage seedlings grown in 3-inch pots, with 2-3 small (3-5 cm) true leaves, were used as test substrate. The seedlings were infested with 20-50 GPA (wingless adult and nymph stages) one day prior to chemical application. Four pots with individual seedlings were used for each treatment. Test compounds (2 mg) were dissolved in 2 mL of acetone/MeOH (1:1) solvent, forming stock solutions of 1000 ppm test compound. The stock solutions were diluted 5× with 0.025% Tween 20 in water to obtain the solution at 200 ppm test compound. A hand-held aspirator-type sprayer was used for spraying a solution to both sides of […] leaves until runoff. Reference plants (solvent check) were sprayed with the diluent only containing 20% by volume of acetone/MeOH (1:1) solvent. Treated plants were held in a holding room for three days at approximately 25° C. and ambient relative humidity (RH) prior to grading. Evaluation was conducted by counting the number of live aphids per plant under a microscope. Percent Control was measured by using Abbott's correction formula (W. S. Abbott, “A Method of Computing the Effectiveness of an Insecticide” J. Econ. Entomol. 18 (1925), pp. 265-267) as follows. Corrected % Control=100*(X−Y)/X • where • X=No. of live aphids on solvent check plants and • Y=No. of live aphids on treated plants The results are indicated in the table entitled “Table 3: Assay Results” (See Table Section).

[4] = system: Cabbage Looper (Trichoplusia ni); experiment: Bioassay on Cabbage Looper (CL), 128-well diet tray assay; format: in vivo; conditions: percent mortality of second instar larvae, 50 μg/cm^2 on artificial diet, five to seven days, 25° C.; Table 3A
Procedure: as §1
Bioassays on CL (Trichoplusia ni)
Bioassays on CL were conducted using a 128-well diet tray assay. One to five second instar CL larvae were placed in each well (3 mL) of the diet tray that had been previously filled with 1 mL of artificial diet to which 50 μg/cm^2 of the test compound (dissolved in […] of 90:10 acetone-water mixture) had been applied (to each of eight wells) and then allowed to dry. Trays were covered with a clear self-adhesive cover, and held at 25° C., 14:10 light-dark for five to seven days. Percent mortality was recorded for the larvae in each well; activity in the eight wells was then averaged. The results are indicated in the table entitled “Table 3A: Assay Results” (See Table Section).

SMILES | pest or weed control at 50 µg/cm2, 50 µg/cm2 ([1]; Table 3) | pest or weed control at 50 µg/cm2 [2] | pest or weed control at 200 ppm ([3]; Table 3, read-out: GPA Rating) | pest or weed control at 50 µg/cm2, 50 µg/cm2 ([1]; Table 3A) | CL Rating [4] | further results
NC(=O)c1ccc(/C=C/C(c2cc(Cl)cc(Cl)c2)C(F)(F)F)cc1 (stereo not shown) [AC2] | – | – | – | – | – | melting point: 110 to 112 °C
O=C(NCc1ccc(/C=C/C(c2cc(Cl)c(Cl)c(Cl)c2)C(F)(F)F)cc1)c1ccnc(Cl)c1 (stereo not shown) [CC13] | 50 to 100% | 50 to 100% | 0 to 80% | – | – | –
O=C(CC(F)(F)F)NCc1ccc(/C=C/C(c2cc(Cl)c(F)c(Cl)c2)C(F)(F)F)cc1 (stereo not shown) [CC16] | 50 to 100% | 50 to 100% | 0 to 80% | – | – | –
O=C(CC(F)(F)F)NNC(=O)c1ccc(/C=C/C(c2cc(Cl)c(Cl)c(Cl)c2)C(F)(F)F)cc1Br (stereo not shown) [Compound F1] | – | – | – | 50 to 100% | A (50-100) | –
CCC(=O)NNC(=O)c1ccc(/C=C/C(c2cc(Cl)c(Cl)c(Cl)c2)C(F)(F)F)cc1Br (stereo not shown) [Compound F8] | – | – | – | 50 to 100% | A (50-100) | –
CCC(=O)N(C)NC(=O)c1ccc(/C=C/C(c2cc(Cl)c(Cl)c(Cl)c2)C(F)(F)F)cc1Br (stereo not shown) [Compound F11, (E)-2-Bromo-N′-methyl-N′-propionyl-4-(4,4,4-trifluoro-3-(3,4,5-trichlorophenyl)but-1-en-1-yl)benzohydrazide] | – | – | – | 50 to 100% | A (50-100) | –
O=C(NCCNC(=O)C(F)(F)F)c1ccc(/C=C/C(c2cc(Cl)c(Cl)c(Cl)c2)C(F)(F)F)cc1Br (stereo not shown) [Compound F33] | – | – | – | 50 to 100% | A (50-100) | pest or weed control at 200 ppm ([3]; Table 3A, read-out: GPA Rating): 0 to 80%
N#Cc1cc(/C=C/C(c2ccc(Cl)c(Cl)c2)C(F)(F)F)ccc1-n1cncn1 (stereo not shown) [DC28] | 50 to 100% | 50 to 100% | 0 to 80% | – | – | –
N#Cc1cc(/C=C/C(c2cc(Cl)c(Cl)c(Cl)c2)C(F)(F)F)ccc1-n1cncn1 (stereo not shown) [DC31] | 50 to 100% | 50 to 100% | 0 to 80% | – | – | –

Source: patent publication US9510592B2, “Pesticidal compositions and processes related thereto” (Dow AgroSciences LLC, priority 2012, dated 2016)
